Test results reported in US10857209B2, “Lysosomal acid lipase and PPAR gamma ligands as immune therapies for cancer treatment” (Indiana University Research and Technology Corporation, priority 2016, dated 2020).

How the values were obtained:
[1] = test system: Lin− cells; test: Differentiation of bone marrow Lin− cells into Ly6G+CD11b+ cells; type: cell-based, mouse; details: lal−/− Lin− cells; 10 μmol/L, 5 days; vs ethanol
Protocol: Lineage-negative (Lin−) cells were isolated from the bone marrow by removing blood lineage marker-positive cells with an immunomagnetic microbead technique. Briefly, bone marrow cells were first incubated with a cocktail of biotin-conjugated antibodies against lineage specific antigens: CD11b, GR-1, B220, TER-119, and CD3ε (Mouse Lineage Panel Kit, BD Pharmingen, San Diego, Calif., USA) at 4° C. for 15 minutes. After washed with PBS, cells were then incubated with anti-biotin microbeads at 4° C. for another 15 minutes. Subsequently, cells were subjected to magnetic bead sorting according to the manufacturer's instructions (Miltenyi Biotec.). The resulting Lin− cells were cultured in RPMI1640 with 10% FBS. Five days later, Ly6G^+CD11b^+ cells derived from Lin− cells were analyzed by flow cytometry analysis.

[2] = test system: Ly6G+ MDSCs; test: Transwell assay of MDSC transendothelial migration; type: cell-based, mouse; details: lal−/− Ly6G+ cells pre-treated 20 μmol/L 48 hours; four hours; vs ethanol
Protocol: (§1) Transwell assay was used to determine MDSC transendothelial migration. SVECs were added to the upper chamber of 24-well 8.0-μm-pore Transwell plates (Corning, Corning, N.Y., USA), and incubated at 37° C., 5% CO2 for 48 hours to form an EC monolayer. The supernatant was then removed, and CellTracker™ Green 5-Chloromethylfluorescein Diacetate (CMFDA) (Invitrogen, Grand Island, N.Y., USA)-labeled MDSCs (2×10^4 cells in 200 μL media) were added to the upper well. After 4 hours, transendothelial migration of MDSCs was determined by counting their numbers in the lower chamber under 5 random microscopic fields.

[3] = test system: B16 melanoma cells; test: Mouse tumor growth model, pre-treated MDSCs co-injected subcutaneously with B16 melanoma cells; type: in vivo
Protocol: For in vitro PPARγ ligand treatment, 9-HODE (Cayman Chemical Co., Ann Arbor, Mich., USA) was added into the culture medium of MDSCs to a final concentration of 20 μmol/L for 24 or 48 hours. For the study of the effect of PPARγ ligand on the mTOR signaling pathway, bone marrow cells were treated with 9-HODE (20 μmol/L) for 2 hours.
(§2) The tumor growth and metastasis model were described in Zhao et al., Oncogene. 2015; 34:1938-48. MDSCs and B16 melanoma cells were collected separately. A pilot study was performed to determine the best ratio between MDSCs and B16 melanoma cells. To test the tumor growth potential, 6×10^5 pre-treated MDSCs and 2×10^5 B16 melanoma cells were mixed, centrifuged and re-suspended in 100 μL PBS, and then injected subcutaneously into the flank region of 3-month old recipient lal^+/+ mice. Tumor volume (length×width^2×π/6) was monitored every week for 4 weeks. To test the metastasis potential, 2×10^6 pre-treated MDSCs and 5×10^5 B16 melanoma cells were mixed and incubated at 37° C., 5% CO2 for 30 minutes. After the incubation, cells were centrifuged, re-suspended, and injected intravenously into 3-month old lal^+/+ mice. Two weeks after the injection, the mice were sacrificed and the lungs were inflated with 4% paraformaldehyde for examination of metastasis.

[4] = test system: B16 melanoma cells; test: Mouse metastasis model, pre-treated MDSCs co-injected intravenously with B16 melanoma cells; type: in vivo; details: two weeks
Protocol: as §2
The harvested lungs were fixed with 4% paraformaldehyde in PBS at 4° C. for overnight. After fixation and embedding in paraffin, tissue sections were cut to 5 μm thick. Hematoxylin and eosin (H&E) staining and immunohistochemical (IHC) staining with anti-Ki67 antibody were performed by the Histological Core Facility, Department of Pathology and Laboratory Medicine, Indiana University. Images were taken by Olympus microscopy image system (Olympus, Tokyo, Japan).

[5] = test system: Lewis lung cancer (LLC) cells; test: In vitro co-culture of pre-treated MDSCs and LLC cells; type: cell-based, mouse; details: lal−/− Ly6G+ cells pre-treated 20 μmol/L 24 hours; 72 hours co-culture
[6] = test system: bone marrow cells; test: Transwell assay of bone marrow cell transendothelial migration towards BALF; type: cell-based, mouse; details: BALF from doxycycline-treated CCSP-Tg/KO mice in lower chamber; 4 hours
Protocol: as §1, with “cell” for “MDSC”, “ECs” for “SVECs”, “CELLTRACKER™” for “CellTracker™”, “bone marrow cells (1×10^4” for “MDSCs (2×10^4”, “bone marrow cells” for “MDSCs”

[7] = test system: Ly6G+CD11b+ cells; test: Flow cytometry of Ly6G+CD11b+ cells in CCSP-Tg/KO mice; type: in vivo, mouse
Protocol: For immune cell profile analysis, single cells from the lung, bone marrow, spleen and blood of lal^+/+, lal^−/− and CCSP-Tg/KO triple mice were prepared. Cells were labeled with isotype control or surface-specific primary antibodies at 4° C. for 15 minutes, and then washed and ready for flow cytometry analysis. Anti-CD11b (M1/70) PE-Cyanine7 and anti-Ly6G (RB6-8c5) APC-eFluor® 780 were purchased from eBiosciences (San Diego, Calif., USA). For characterization of tissue-specific expression of the hLAL transgene, single cells from the lungs of lal^+/+, lal^−/− and CCSP-Tg/KO triple mice were prepared and stained. Surfactant protein C (SP-C, AT II epithelial cell marker) Ab and Flag Ab were purchased from Santa Cruz Biotechnology (Dallas, Tex., USA) and Sigma-Aldrich (St. Louis, Mo., USA), respectively. In gated SP-C^+ cells, the number of the Flag^+ cells were analyzed by flow cytometry and calculated based on M1, which is defined by isotype control. Whole spleen cells were used as a control, in which the number of the Flag^+ cells was analyzed. For flow cytometry analysis, ≥30,000 cells were acquired and scored using a LSRII machine (BD Biosciences, San Jose, Calif., USA). Data were processed using the CellQuest software program (BD Biosciences).

[8] = pre-treated lal−/− Ly6G+ cells + B16 i.v.
[9] = doxycycline-treated CCSP-Tg/KO mice

**Q.** 9-hydroxyoctadecadienoic acid [9-HODE] was tested. Which “Ly6G+CD11b+ cells derived from Lin− cells” value [1] did it give?
**A.** fewer Ly6G^+CD11b^+ cells

**Q.** And the “Ly6G+ cells migrated across endothelial monolayer” value [2]?
**A.** less Ly6G^+ cells in the lower chamber

**Q.** And the “tumor size vs ethanol-treated lal−/− Ly6G+ cells” value ([3]; C57BL/6 Ly6G+ cells into C57BL/6 mice, 7, 14 and 21 days post-injection)?
**A.** significantly smaller

**Q.** And the tumor volume ([3]; lal−/− Ly6G+ cells pre-treated 20 μmol/L 24 hours, co-injected s.c. with B16 cells into lal+/+ FVB/N mice, one week after injection, ethanol control 77.6±16.4)?
**A.** 36.3±12.4 mm^3

**Q.** And the “B16 melanoma colonization in the lung” value ([4]; pre-treated lal+/+ Ly6G+ cells + B16 i.v.)?
**A.** did not affect B16 melanoma colonization in the lung

**Q.** What about the “B16 melanoma colonies in the lungs” value ([4]; pre-treated lal−/− Ly6G+ cells + B16 i.v. into lal+/+ mice, vs ethanol) of the same molecule?
**A.** less B16 melanoma colonies

**Q.** What about the “Ki67 positive cells in lung sections (IHC staining)” value [4, 8] of the same molecule?
**A.** less Ki67 positive cells

**Q.** And the “neoplastic cells in lung sections (H&E staining)” value [4, 8]?
**A.** less neoplastic cells

**Q.** And the “proliferation of LLC cells upon co-culture” value [5]?
**A.** reduced proliferation of LLC cells

B1: hLAL: human lysosomal acid lipase expressed from a doxycycline-controlled tissue-specific transgene in lal−/− mice; never administered as a protein (protein)
chain: GPKPVVFLQHGLLADSSNWVTNLANSSLGFILADAGFDVWMGNSRGNTWSRKHKTLSVSQDEFWAFSYDEMAKYDLPASINFILNKTGQEQVYYVGHSQGTTIGFIAFSQIPELAKRIKMFFALGPVASVAFCTSPMAKLGRLPDHLIKDLFGDKEFLPQSAFLKWLGTHVCTHVILKELCGNLCFLLCGFNERNLNMSRVDVYTTHSPAGTSVQNMLHWSQAVKFQKFQAFDWGSSAKNYFHYNQSYPPTYNVKDMLVPTAVWSGGHDWLADVYDVNILLTQITNLVFHESIPEWEHLDFIWGLDAPWRLYNKIINLMRKYQ
modifications: left off: small tags and cut ends
notes: human lysosomal acid lipase expressed from a doxycycline-controlled tissue-specific transgene in lal−/− mice; never administered as a protein
**Q.** For B1, which “bone marrow cell transendothelial migration” value [6] is on record?
**A.** decreased bone marrow cell transendothelial migration

**Q.** And the “percentage of Ly6G+CD11b+ cells in the lung” value ([7]; doxycycline-treated (hLAL on) vs untreated CCSP-Tg/KO mice)?
**A.** significantly decreased

**Q.** What about the “Ly6G+CD11b+ cell accumulation in the blood” value [7, 9] of the same molecule?
**A.** reduced

**Q.** And the “Ly6G+CD11b+ cells in the spleen and bone marrow” value [7, 9]?
**A.** no reversing effect
